Measured values taken from PubChem BioAssay AID248 (DTP/NCI, 2004).
“And” between values parts separate entries of the source, which are not always exact repeats. Equal values may be shown once. Inconclusive results and toxic doses are left out. No stated cut-off is given here; in the data, active means T/C of 150% or more; inactive means T/C below 125%. Peptide text beside a SMILES is read from it.

System: L1210 leukemia ip in BDF1 mice, survival T/C
Assay: NCI In Vivo Anticancer Drug Screen. Data for tumor model L1210 Leukemia (intraperitoneal) in B6D2F1 (BDF1) mice
Conditions: endpoint: mean survival time, higher = longer survival
Outline: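 Tumor cells were implanted, animals were treated, and survival was followed. The result divides the treated measurement by the vehicle-control measurement.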

[1] = dose: 100.0 mg/kg/injection, schedule: Q01DX001 (ip), vehicle: saline
[2] = dose: 100.0 mg/kg/injection, schedule: Q04DX003 (ip), vehicle: saline
[3] = dose: 200.0 mg/kg/injection, schedule: Q01DX001 (ip), vehicle: saline
[4] = dose: 200.0 mg/kg/injection, schedule: Q04DX003 (ip), vehicle: saline
[5] = dose: 400.0 mg/kg/injection, schedule: Q01DX001 (ip), vehicle: saline
[6] = dose: 400.0 mg/kg/injection, schedule: Q04DX003 (ip), vehicle: saline
[7] = dose: 10.0 mg/kg/injection, schedule: Q01DX001 (ip), vehicle: carboxymethylcellulose (CMC)
[8] = dose: 20.0 mg/kg/injection, schedule: Q01DX001 (ip), vehicle: carboxymethylcellulose (CMC)
[9] = dose: 40.0 mg/kg/injection, schedule: Q01DX001 (ip), vehicle: carboxymethylcellulose (CMC)
[10] = dose: 100.0 mg/kg/injection, schedule: Q01DX001 (ip), vehicle: carboxymethylcellulose (CMC)
[11] = dose: 200.0 mg/kg/injection, schedule: Q01DX001 (ip), vehicle: carboxymethylcellulose (CMC)
[12] = dose: 400.0 mg/kg/injection, schedule: Q01DX001 (ip), vehicle: carboxymethylcellulose (CMC)
[13] = dose: 50.0 mg/kg/injection, schedule: Q01DX001 (ip), vehicle: saline
[14] = dose: 100.0 mg/kg/injection, schedule: Q04DX003 (ip), vehicle: saline with Tween-80
[15] = dose: 200.0 mg/kg/injection, schedule: Q04DX003 (ip), vehicle: saline with Tween-80
[16] = dose: 400.0 mg/kg/injection, schedule: Q04DX003 (ip), vehicle: saline with Tween-80
[17] = dose: 100.0 mg/kg/injection, schedule: Q04DX002 (ip), vehicle: saline with Tween-80
[18] = dose: 200.0 mg/kg/injection, schedule: Q04DX002 (ip), vehicle: saline with Tween-80
[19] = dose: 400.0 mg/kg/injection, schedule: Q04DX002 (ip), vehicle: saline with Tween-80

Measured: T/C

COC(=O)c1cccc2c1C(Br)C(Br)c1ccccc1-2 (stereo not given)
inactive: [1] 101 % of control | [2] 100 % of control | [3] 98 % of control | [4] 97 % of control | [5] 98 % of control | [6] 94 % of control

Clc1nc(Cl)c(CBr)c(Cl)n1
inactive: dose: 1.0 mg/kg/injection, schedule: Q01DX Z (ip), vehicle: carboxymethylcellulose (CMC) 96 % of control | dose: 2.0 mg/kg/injection, schedule: Q01DX Z (ip), vehicle: carboxymethylcellulose (CMC) 96 % of control | dose: 4.0 mg/kg/injection, schedule: Q01DX Z (ip), vehicle: carboxymethylcellulose (CMC) 96 % of control | dose: 8.0 mg/kg/injection, schedule: Q01DX Z (ip), vehicle: carboxymethylcellulose (CMC) 94 % of control | [7] 96 % of control | dose: 16.0 mg/kg/injection, schedule: Q01DX009 (ip), vehicle: carboxymethylcellulose (CMC) 103 % of control | [8] 93 % of control | [9] 93 % of control

CCCCCCCCCCCCCCCCCC(=O)N/N=C/c1cc(C(C)(C)C)c(O)c(C(C)(C)C)c1
inactive: dose: 100.0 mg/kg/injection, schedule: Q01DX009 (ip), vehicle: other 90 % of control | dose: 200.0 mg/kg/injection, schedule: Q01DX009 (ip), vehicle: other 88 % of control | dose: 400.0 mg/kg/injection, schedule: Q01DX009 (ip), vehicle: other 96 % of control

OCc1ccc(O)cn1
inactive: [1] 97 % of control | [3] 87 % of control | [5] 94 % of control

CC1([N+](=O)[O-])COP(=O)(O)OC1 (stereo not given) (tested in a mixture with another compound)
inactive: [10] 109 % of control | [1] 101 % of control [middle of 4 runs] | [11] 109 % of control | [3] 102 % of control [middle of 4 runs] | [12] 107 % of control | [5] 101 % of control and 102 % of control and 103 % of control

CCOC(Nc1cc(Cl)ccc1Cl)C(=O)c1ccccc1 (stereo not given)
inactive: [1] 97 % of control | [3] 100 % of control | [5] 96 % of control

NC(CCC(=O)O)C(=O)NC(CO)C(=O)O (stereo not drawn) (H-Glu-Ser-OH; configuration not given here)
inactive: dose: 100.0 mg/kg/injection, schedule: Q01DX001 (ip), vehicle: saline with Tween-80 92 % of control | dose: 200.0 mg/kg/injection, schedule: Q01DX001 (ip), vehicle: saline with Tween-80 89 % of control

COc1cc(C)c(C(=O)c2ccccc2N)cc1OC
inactive: [10] 105 % of control | [11] 118 % of control | [12] 96 % of control

COc1nc(=O)n(C2CCCO2)cc1I (stereo not given)
inactive: [13] 95 % of control | [1] 95 % of control | [3] 90 % of control

NC(CSSCC(N)=NCCCCCSC12CC3CC(CC(C3)C1)C2)=NCCCCCSC12CC3CC(CC(C3)C1)C2
inactive: dose: 2.5 mg/kg/injection, schedule: Q04DX002 (ip), vehicle: Klucel (hydroxypropylcellulose) (HPC) 100 % of control | dose: 5.0 mg/kg/injection, schedule: Q04DX002 (ip), vehicle: Klucel (hydroxypropylcellulose) (HPC) 100 % of control | dose: 10.0 mg/kg/injection, schedule: Q04DX002 (ip), vehicle: Klucel (hydroxypropylcellulose) (HPC) 100 % of control and 90 % of control

O=S1(=O)CCCC1C(O)(c1ccccc1)c1ccccc1 (stereo not given)
inactive: [14] 97 % of control | [15] 92 % of control | [16] 94 % of control

COc1ccc2c3csc4ccccc4c-3nc2c1
inactive: dose: 12.5 mg/kg/injection, schedule: Q01DX009 (ip), vehicle: saline 98 % of control | dose: 12.5 mg/kg/injection, schedule: Q04DX003 (ip), vehicle: saline 95 % of control | dose: 25.0 mg/kg/injection, schedule: Q01DX009 (ip), vehicle: Klucel (hydroxypropylcellulose) (HPC) 111 % of control | dose: 25.0 mg/kg/injection, schedule: Q01DX009 (ip), vehicle: saline 98 % of control | dose: 25.0 mg/kg/injection, schedule: Q04DX003 (ip), vehicle: saline 95 % of control | dose: 50.0 mg/kg/injection, schedule: Q01DX009 (ip), vehicle: Klucel (hydroxypropylcellulose) (HPC) 100 % of control | dose: 50.0 mg/kg/injection, schedule: Q04DX003 (ip), vehicle: saline 94 % of control

O=C(Nc1ccc(NC(=O)C(Cl)Cl)cc1)C(Cl)Cl
inactive: dose: 100.0 mg/kg/injection, schedule: Q04DX003 (ip), vehicle: Klucel (hydroxypropylcellulose) (HPC) 97 % of control | dose: 200.0 mg/kg/injection, schedule: Q04DX003 (ip), vehicle: Klucel (hydroxypropylcellulose) (HPC) 101 % of control | dose: 400.0 mg/kg/injection, schedule: Q04DX003 (ip), vehicle: Klucel (hydroxypropylcellulose) (HPC) 90 % of control

N=C(N)c1ccc(OCCCCOc2ccc(NC(=O)Nc3cccc(S(=O)(=O)F)c3)cc2)cc1
inactive: dose: 25.0 mg/kg/injection, schedule: Q01DX001 (ip), vehicle: Klucel (hydroxypropylcellulose) (HPC) 97 % of control | dose: 50.0 mg/kg/injection, schedule: Q01DX001 (ip), vehicle: Klucel (hydroxypropylcellulose) (HPC) 95 % of control | dose: 100.0 mg/kg/injection, schedule: Q01DX001 (ip), vehicle: Klucel (hydroxypropylcellulose) (HPC) 89 % of control

COC1OC(CNCCO)C2OC(C)(C)OC12 (stereo not given)
inactive: dose: 100.0 mg/kg/injection, schedule: Q01DX009 (ip), vehicle: saline 103 % of control | [2] 101 % of control | dose: 200.0 mg/kg/injection, schedule: Q01DX009 (ip), vehicle: saline 96 % of control | [4] 98 % of control | dose: 400.0 mg/kg/injection, schedule: Q01DX009 (ip), vehicle: saline 101 % of control | [6] 95 % of control

COC(=O)c1ccccc1N=NNc1cccc(SC)c1
inactive: [14] 95 % of control | [15] 93 % of control

Cc1ccn(C)c(=O)c1
inactive: [2] 105 % of control | [4] 103 % of control | [6] 102 % of control

O=c1cc(CBr)c2ccccc2[nH]1
inactive: dose: 5.0 mg/kg/injection, schedule: Q01DX001 (ip), vehicle: saline 100 % of control | dose: 6.25 mg/kg/injection, schedule: Q01DX009 (ip), vehicle: saline with Tween-80 105 % of control | dose: 10.0 mg/kg/injection, schedule: Q01DX001 (ip), vehicle: saline 94 % of control | dose: 12.5 mg/kg/injection, schedule: Q01DX009 (ip), vehicle: saline with Tween-80 90 % of control | dose: 20.0 mg/kg/injection, schedule: Q01DX001 (ip), vehicle: saline 100 % of control | dose: 40.0 mg/kg/injection, schedule: Q01DX001 (ip), vehicle: saline 103 % of control | dose: 80.0 mg/kg/injection, schedule: Q01DX001 (ip), vehicle: saline 97 % of control

COc1cc(/C=N\NC(=S)Nc2ccc(S(=O)(=O)N3CCCCC3)cc2)cc(OC)c1OC
inactive: [17] 98 % of control | [18] 103 % of control | [19] 90 % of control

CNC(=O)OC(C)(C)C#N
inactive: [17] 101 % of control | [18] 101 % of control | [19] 106 % of control

CN(C)C(c1ccccc1)c1ccccc1
inactive: [13] 96 % of control | [1] 94 % of control | [3] 94 % of control | [5] 94 % of control

O=C(CBr)NCCCCc1ccc(C(=O)O)cc1
inactive: [7] 92 % of control | [8] 100 % of control | [9] 103 % of control

Cc1cccc([N+](=O)[O-])n1
inactive: dose: 25.0 mg/kg/injection, schedule: Q01DX009 (ip), vehicle: saline with Tween-80 94 % of control | dose: 50.0 mg/kg/injection, schedule: Q01DX009 (ip), vehicle: saline with Tween-80 94 % of control | [14] 89 % of control

N#CCCN(CCCN1CCOCC1)C(=S)Nc1cccc(C(F)(F)F)c1
inactive: [17] 92 % of control | [19] 100 % of control

COC(=O)C1=C(C)NC(=S)NC1c1ccco1 (stereo not given)
inactive: [14] 95 % of control | [15] 97 % of control | [16] 97 % of control

Cc1ccc(C)n1-c1ccc(S(=O)(=O)c2ccc(NC(=O)CCC(=O)O)cc2)cc1
inactive: dose: 100.0 mg/kg/injection, schedule: Q01DX009 (ip), vehicle: saline with Tween-80 93 % of control | dose: 200.0 mg/kg/injection, schedule: Q01DX009 (ip), vehicle: saline with Tween-80 88 % of control | dose: 400.0 mg/kg/injection, schedule: Q01DX009 (ip), vehicle: saline with Tween-80 96 % of control

C(=N\c1ncn[nH]1)/Nc1ncn[nH]1
inactive: [2] 94 % of control | [4] 96 % of control
